Assay results published in publication PMC9090415, “Discovery of small molecule inhibitors of Plasmodium falciparum apicoplast DNA polymerase” (Journal of Enzyme Inhibition and Medicinal Chemistry, 2022).

Molecular target: P. falciparum apicoplast DNA polymerase (Pf-apPOL) (Plasmodium falciparum, UniProt Q8ILY1)
Experiment: Fluorescence-based high-throughput DNA polymerase assay (molecular beacon), primary screen and dose-response;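 for % inhibition ApPOL 90': test concentration in µM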;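 for % inhibition apPOL 180': test concentration in µM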
Format: biochemical
Conditions: for DNA Pol: 90 min, 10 µM; for IC50: supplemental file 2, sheet IC50 nontoxic compounds, Pf-apPOL
Method in brief: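 Single-point screening used 10 µM compound with 20 nM polymerase, 20 nM hairpin substrate and 6 µM dNTPs for 90 min at 25 °C. Confirmatory titrations (2.5–80 µM) followed fluorescence at three times, and IC50 was derived from a fit including a cooperativity term n.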

Chain of P. falciparum apicoplast DNA polymerase (Pf-apPOL) (Q8ILY1 entry or part of it): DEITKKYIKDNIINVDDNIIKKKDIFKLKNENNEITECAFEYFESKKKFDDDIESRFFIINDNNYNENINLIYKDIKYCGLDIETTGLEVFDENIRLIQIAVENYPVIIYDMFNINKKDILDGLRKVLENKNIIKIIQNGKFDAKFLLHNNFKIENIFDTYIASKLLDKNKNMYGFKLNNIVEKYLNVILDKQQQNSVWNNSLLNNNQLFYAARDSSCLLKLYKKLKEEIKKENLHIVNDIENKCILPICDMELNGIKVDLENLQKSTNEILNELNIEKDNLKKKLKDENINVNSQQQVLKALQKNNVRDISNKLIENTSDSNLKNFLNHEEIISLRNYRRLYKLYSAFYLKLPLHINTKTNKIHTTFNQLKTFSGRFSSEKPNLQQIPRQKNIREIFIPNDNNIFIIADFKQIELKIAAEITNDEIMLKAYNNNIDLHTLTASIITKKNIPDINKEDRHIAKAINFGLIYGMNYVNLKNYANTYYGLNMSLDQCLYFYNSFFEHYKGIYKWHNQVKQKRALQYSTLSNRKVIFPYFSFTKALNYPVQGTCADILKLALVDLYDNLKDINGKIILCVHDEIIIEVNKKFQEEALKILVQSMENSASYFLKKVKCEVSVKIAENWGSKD

Compound: Cc1ccc(NC(=O)Cn2ccc3c(=O)[nH]ccc32)c(C)c1 [KU0205125]
- DNA Pol ('DNA Pol' of the 186 hits list (screen value)): 21
- % inhibition Apo pol 10' (DRC-1, conc 2.5): 10.1191%
- % inhibition Apo pol 10' (DRC-1, conc 5): 18.1282%
- % inhibition Apo pol 10' (DRC-1, conc 10): 33.277%
- % inhibition Apo pol 10' (DRC-1, conc 20): 57.4285%
- % inhibition Apo pol 10' (DRC-1, conc 40): 86.5673%
- % inhibition Apo pol 10' (DRC-1, conc 80): 93.6236%
- % inhibition Apol 90' (DRC-1, 90', conc 2.5): 1.128%
- % inhibition Apol 90' (DRC-1, 90', conc 5): 2.856%
- % inhibition Apol 90' (DRC-1, 90', conc 10): 16.2688%
- % inhibition Apol 90' (DRC-1, 90', conc 20): 36.6738%
- % inhibition Apol 90' (DRC-1, 90', conc 40): 74.6586%
- % inhibition Apol 90' (DRC-1, 90', conc 80): 93.7132%
- % inhibition apPOL 180' (DRC-1, 180', conc 2.5): -4.92%
- % inhibition apPOL 180' (DRC-1, 180', conc 5): -5.3418%
- % inhibition apPOL 180' (DRC-1, 180', conc 10): 4.52%
- % inhibition apPOL 180' (DRC-1, 180', conc 20): 18.6019%
- % inhibition apPOL 180' (DRC-1, 180', conc 40): 59.9504%
- % inhibition apPOL 180' (DRC-1, 180', conc 80): 92.9849%
- % inhibition Apo pol 5' (DRC-2, 5', conc 2.5): -2.19%
- % inhibition Apo pol 5' (DRC-2, 5', conc 5): 1.9%
- % inhibition Apo pol 5' (DRC-2, 5', conc 10): 23%
- % inhibition Apo pol 5' (DRC-2, 5', conc 20): 44%
- % inhibition Apo pol 5' (DRC-2, 5', conc 40): 52%
- % inhibition Apo pol 5' (DRC-2, 5', conc 80): 50%
- % inhibition Apo pol 5' (DRC-2, 5', concentration 20): 44%
- % inhibition Apol 40' (DRC-2, 40', conc 2.5): -3.78%
- % inhibition Apol 40' (DRC-2, 40', conc 5): -0.571%
- % inhibition Apol 40' (DRC-2, 40', conc 10): 20%
- % inhibition Apol 40' (DRC-2, 40', conc 20): 48%
- % inhibition Apol 40' (DRC-2, 40', conc 40): 70%
- % inhibition Apol 40' (DRC-2, 40', conc 80): 73%
- % inhibition ApPOL 90' (DRC-2, 90', conc 2.5): -5%
- % inhibition ApPOL 90' (DRC-2, 90', conc 5): -4%
- % inhibition ApPOL 90' (DRC-2, 90', conc 10): 15%
- % inhibition ApPOL 90' (DRC-2, 90', conc 20): 44%
- % inhibition ApPOL 90' (DRC-2, 90', conc 40): 71%
- % inhibition ApPOL 90' (DRC-2, 90', conc 80): 78%
- % inhibition ApPOL 90' (DRC-2, 90', concentration 20): 44%
- % inhibition apPOL 180' (DRC-2, 180', conc 2.5): -10%
- % inhibition apPOL 180' (DRC-2, 180', conc 5): -11%
- % inhibition apPOL 180' (DRC-2, 180', conc 10): 3%
- % inhibition apPOL 180' (DRC-2, 180', conc 20): 30%
- % inhibition apPOL 180' (DRC-2, 180', conc 40): 69%
- % inhibition apPOL 180' (DRC-2, 180', conc 80): 82%
- DNA Pol (primary screen value, "DNA Pol"): 21

Compound: O=C1C(=Cc2ccncc2)Oc2c1ccc1c2CN(Cc2ccc3c(c2)OCO3)CO1 [KU0199357]
- % inhibition Apo pol 10' (DRC-1, concentration 2.5): -2.582%
- % inhibition Apo pol 10' (DRC-1, concentration 5): 7.288%
- % inhibition Apo pol 10' (DRC-1, concentration 10): 20.9046%
- % inhibition Apo pol 10' (DRC-1, concentration 20): 43.4481%
- % inhibition Apo pol 10' (DRC-1, concentration 40): 58.0959%
- % inhibition Apo pol 10' (DRC-1, concentration 80): 67.6881%
- % inhibition Apol 90' (DRC-1, 90', concentration 2.5): 5.905%
- % inhibition Apol 90' (DRC-1, 90', concentration 5): 17.1592%
- % inhibition Apol 90' (DRC-1, 90', concentration 10): 34.0534%
- % inhibition Apol 90' (DRC-1, 90', concentration 20): 57.2301%
- % inhibition Apol 90' (DRC-1, 90', concentration 40): 66.3839%
- % inhibition Apol 90' (DRC-1, 90', concentration 80): 71.081%
- % inhibition apPOL 180' (DRC-1, 180', concentration 2.5): 18.2%
- % inhibition apPOL 180' (DRC-1, 180', concentration 5): 33.6281%
- % inhibition apPOL 180' (DRC-1, 180', concentration 10): 52.8401%
- % inhibition apPOL 180' (DRC-1, 180', concentration 20): 75.9569%
- % inhibition apPOL 180' (DRC-1, 180', concentration 40): 84.0502%
- % inhibition apPOL 180' (DRC-1, 180', concentration 80): 84.7923%
- % inhibition Apo pol 5' (DRC-2, 5', concentration 2.5): 6%
- % inhibition Apo pol 5' (DRC-2, 5', concentration 5): 15%
- % inhibition Apo pol 5' (DRC-2, 5', concentration 10): 35%
- % inhibition Apo pol 5' (DRC-2, 5', concentration 20): 37%
- % inhibition Apo pol 5' (DRC-2, 5', concentration 40): 46%
- % inhibition Apo pol 5' (DRC-2, 5', concentration 80): 40%
- % inhibition Apol 40' (DRC-2, 40', concentration 2.5): 1.87%
- % inhibition Apol 40' (DRC-2, 40', concentration 5): 3%
- % inhibition Apol 40' (DRC-2, 40', concentration 10): 31%
- % inhibition Apol 40' (DRC-2, 40', concentration 20): 32%
- % inhibition Apol 40' (DRC-2, 40', concentration 40): 39%
- % inhibition Apol 40' (DRC-2, 40', concentration 80): 34%
- % inhibition ApPOL 90' (DRC-2, 90', concentration 2.5): -1.19%
- % inhibition ApPOL 90' (DRC-2, 90', concentration 5): -9%
- % inhibition ApPOL 90' (DRC-2, 90', concentration 10): 26%
- % inhibition ApPOL 90' (DRC-2, 90', concentration 20): 27%
- % inhibition ApPOL 90' (DRC-2, 90', concentration 40): 36%
- % inhibition ApPOL 90' (DRC-2, 90', concentration 80): 34%
- % inhibition apPOL 180' (DRC-2, 180', concentration 2.5): -7%
- % inhibition apPOL 180' (DRC-2, 180', concentration 5): -87%
- % inhibition apPOL 180' (DRC-2, 180', concentration 10): 11%
- % inhibition apPOL 180' (DRC-2, 180', concentration 20): 13%
- % inhibition apPOL 180' (DRC-2, 180', concentration 40): 28%
- % inhibition apPOL 180' (DRC-2, 180', concentration 80): 35%
- % inhibition Apo pol 5' (conc. 10, 5', DRC-2): 35%
- % inhibition Apol 40' (conc. 80, 40', DRC-2): 34%
- % inhibition ApPOL 90' (conc. 80, 90', DRC-2): 34%
- % inhibition apPOL 180' (conc. 80, 180', DRC-2): 35%
- DNA Pol (primary screen value by plate and well): 32
- DNA Pol (primary screen value of the 186 hits, unit not given): 32

Compound: O=C(NNC(=O)c1ccc(Cl)cc1)C(=O)NNC(=O)c1ccc(Cl)cc1 [Molecule 25]
- IC50: 9.83 µM

Compound: O=c1cc(CN2CCCCC2)c2cc3c(cc2o1)OCO3 [Molecule 56, O=c1cc(CN2CCCCC2)c2c(o1)cc1c(c2)OCO1]
- DNA Pol ('DNA Pol' of the 186 hits list (primary screen result), unit not given): 34
- % inhibition Apo pol 10' (DRC-1, concentration 2.5): -1.492%
- % inhibition Apo pol 10' (DRC-1, concentration 5): 3.303%
- % inhibition Apo pol 10' (DRC-1, concentration 10): 19.9772%
- % inhibition Apo pol 10' (DRC-1, concentration 20): 32.3483%
- % inhibition Apo pol 10' (DRC-1, concentration 40): 45.3079%
- % inhibition Apo pol 10' (DRC-1, concentration 80): 89.8826%
- % inhibition Apol 90' (DRC-1, 90', concentration 2.5): 2.551%
- % inhibition Apol 90' (DRC-1, 90', concentration 5): 7.455%
- % inhibition Apol 90' (DRC-1, 90', concentration 10): 24.7772%
- % inhibition Apol 90' (DRC-1, 90', concentration 20): 41.1965%
- % inhibition Apol 90' (DRC-1, 90', concentration 40): 58.3854%
- % inhibition Apol 90' (DRC-1, 90', concentration 80): 90.5438%
- % inhibition apPOL 180' (DRC-1, 180', concentration 2.5): 3.723%
- % inhibition apPOL 180' (DRC-1, 180', concentration 5): 9.055%
- % inhibition apPOL 180' (DRC-1, 180', concentration 10): 32.8614%
- % inhibition apPOL 180' (DRC-1, 180', concentration 20): 57.3951%
- % inhibition apPOL 180' (DRC-1, 180', concentration 40): 81.7381%
- % inhibition apPOL 180' (DRC-1, 180', concentration 80): 95.8992%
- % inhibition Apo pol 5' (DRC-2, 5', concentration 10 (unit not given)): 21%
- % inhibition Apol 40' (DRC-2, 40', concentration 2.5 (unit not given)): 8%
- % inhibition Apol 40' (DRC-2, 40', concentration 5 (unit not given)): 4%
- % inhibition Apol 40' (DRC-2, 40', concentration 20 (unit not given)): 39%
- % inhibition Apol 40' (DRC-2, 40', concentration 80 (unit not given)): 68%
- % inhibition ApPOL 90' (DRC-2, 90', concentration 20 (unit not given)): 39%
- % inhibition ApPOL 90' (DRC-2, 90', concentration 80 (unit not given)): 68%
- % inhibition apPOL 180' (DRC-2, 180', concentration 10 (unit not given)): 21%
- % inhibition Apo pol 5' (DRC-2, 5', concentration 2.5): 5.61%
- % inhibition Apo pol 5' (DRC-2, 5', concentration 5): 6%
- % inhibition Apo pol 5' (DRC-2, 5', concentration 10): 21%
- % inhibition Apo pol 5' (DRC-2, 5', concentration 20): 35%
- % inhibition Apo pol 5' (DRC-2, 5', concentration 40): 50%
- % inhibition Apo pol 5' (DRC-2, 5', concentration 80): 60%
- % inhibition Apol 40' (DRC-2, 40', concentration 2.5): 8%
- % inhibition Apol 40' (DRC-2, 40', concentration 5): 4%
- % inhibition Apol 40' (DRC-2, 40', concentration 10): 26%
- % inhibition Apol 40' (DRC-2, 40', concentration 20): 39%
- % inhibition Apol 40' (DRC-2, 40', concentration 40): 54%
- % inhibition Apol 40' (DRC-2, 40', concentration 80): 68%
- % inhibition ApPOL 90' (DRC-2, 90', concentration 2.5): 8%
- % inhibition ApPOL 90' (DRC-2, 90', concentration 2.5 (unit not given)): 8%
- % inhibition ApPOL 90' (DRC-2, 90', concentration 5): -0.711%
- % inhibition ApPOL 90' (DRC-2, 90', concentration 10): 27%
- % inhibition ApPOL 90' (DRC-2, 90', concentration 20): 39%
- % inhibition ApPOL 90' (DRC-2, 90', concentration 40): 53%
- % inhibition ApPOL 90' (DRC-2, 90', concentration 80): 68%
- % inhibition apPOL 180' (DRC-2, 180', concentration 2.5): 4%
- % inhibition apPOL 180' (DRC-2, 180', concentration 2.5 (unit not given)): 4%
- % inhibition apPOL 180' (DRC-2, 180', concentration 5): -66%
- % inhibition apPOL 180' (DRC-2, 180', concentration 10): 21%
- % inhibition apPOL 180' (DRC-2, 180', concentration 20): 32%
- % inhibition apPOL 180' (DRC-2, 180', concentration 40): 45%
- % inhibition apPOL 180' (DRC-2, 180', concentration 80): 64%
- DNA Pol (primary screen value of the library well, unit not given): 34

Compound: O=C1NN(c2ccc(Cl)c(Cl)c2)C(=O)/C1=C/c1ccc(-c2ccc3c(c2)C(=O)OC3)o1 [Molecule 90]
- IC50: 3.43 µM
